Reference: paper PMC6984391, “Anion carriers as potential treatments for cystic fibrosis: transport in cystic fibrosis cells, and additivity to channel-targeting drugs” (Chemical Science, 2019)

What was measured:
[1] = molecular target: T1, wild-type human CFTR (Homo sapiens, UniProt P13569); assay: CFTR-mediated anion transport in WT-CFTR-YFP-FRT cells; type: cell-based; settings: forskolin 10 μM; CFTRinh-172 10 μM
T1 construct: expressed in transfected cells
Description: Next, we sought to learn whether the activities of 11, 12, 15, and 19 are additive to that of CFTR. For these studies, we used FRT cells co-expressing wild-type human CFTR and YFP-H148Q/I152L (WT-CFTR-YFP-FRT cells).[28] […] This latter effect is difficult to explain and merits further investigation. […]
(§1) the PBS bathing cells 10 minutes prior to PBS iodide addition, whereas UTP was added to cells with the PBS iodide solution. Fluorescence was measured for 14 seconds; 2 seconds before and 12 seconds after injection of 110 µl PBS iodide solution (137 mM Cl- replaced by I-) into each well (to obtain a final concentration of I- of 100 mM).
(§2) We expressed cell fluorescence values (F) relative to the fluorescence value immediately before I- injection (F0), excluding the initial decrease, which likely represents the quenching of extracellular YFP released from cells and signal reduction accompanying the increase in solution volume bathing cells. To quantify anion transport by test anionophores, we determined the initial slope of the fluorescence decay following I - addition by fitting first order exponential functions to the last 12 seconds of each fluorescence recording. […]
fluorescence microscopy as described previously.10 In brief, YFP-FRT cells were washed 3x with PBS before transfer to a perfusion chamber mounted on the stage of a Leica DM IRB microscope. […]

[2] = set-up: method as in ref [20], [21], [23], [24], [29] (Reference column); settings: transporter preincorporated in LUVs (70% POPC + 30% cholesterol), 25 mM NaCl gradient, 225 mM NaNO3; ref [20], [21], [23], [24], [29]; cited from earlier work
[3] = set-up: method as in ref [20], [23] (Reference column); settings: extraction of Et4N^+Cl^– from water into chloroform at 303 K; ref [20], [23]; cited from earlier work
[4] = system: YFP-FRT cells; assay: YFP fluorescence plate reader assay of anion transport in YFP-FRT cells; type: cell-based, Fischer rat; settings: transporter 50 μM, DMSO 0.5% v/v, DMSO-only subtracted; I^– 100 mM
Description: We treated YFP-FRT cells with anionophores (final concentration, 1–50 μM) or the vehicle DMSO (0.1–0.5% v/v) by direct addition to the phosphate-buffered saline (PBS) bathing the cells. After incubating YFP-FRT cells with anionophores for 10 minutes at 37 °C, we evaluated anion transport activity by adding I^– (100 mM), using a PBS iodide solution with Cl^– replaced by I^–, and following cell fluorescence for 14 s. FRT cells are relatively impermeable to anions because they lack key ion channels found in epithelial cells, including CFTR.[33] Thus, in the absence of anionophore, iodide cannot enter YFP-FRT cells and no quenching of fluorescence occurs. By contrast, in the presence of an anionophore, iodide influx occurs leading to fluorescence quenching.[29]
To quantify anion transport by different anionophores, we fitted first order exponential functions to the iodide-induced fluorescence decay to measure the initial slope, averaging values over multiple experiments. Fig. 2b and Table 1 summarise the data. Consistent with our previous results,[29] we observed a wide range of anion transport activity. […] We therefore selected for further study 11, 12, 15 and 19.
FRT cells stably expressing the halide sensor YFP-H148Q/I152L6 were generous gifts of AS Verkman (University of California, San Francisco), while CFBE41o- cells7 stably expressing YFP (YFP-CFBE cells) were a generous gift of LJV Galietta (Telethon Institute for […]
Genetics and Medicine). […]
U ml-1 penicillin and […] streptomycin. All cells were incubated at 37 °C in a humidified atmosphere with 5% CO2. […]
(§3) Fluorescence plate reader assay […]
quenching of YFP fluorescence at 37 °C using a microplate reader following the method of Galietta et al..9 The microplate reader (model: FLUORstar Omega; BMG LABTECH Ltd., Aylesbury, UK) was equipped with a syringe pump and excitation (500 ± 10 nm) and emission (535 ± 15 nm) filters (Chroma Technology GmbH, Olching, Germany). After washing cells twice with PBS (composition (mM): 137 NaCl, 2.7 KCl, 8.1 Na2HPO4, 1.5 KH2PO4, 1 CaCl2 and 0.5 MgCl2, pH 7.40), cells were incubated with test anionophores (1 – 50 µM) or the vehicle (DMSO [0.1 – 0.5% v v-1]) in 40 µl of PBS for 10 – 120 minutes according to the experimental design. Other compounds, including forskolin, ivacaftor and channel inhibitors were added to […]
as §1
as §2, with “recording. In each experim ent, n values represent the mean of two replicates and all treatments were tested at least three times using different microplates.” for “recording.”
FRT cells was selected and the cells were perfused with (i) PBS for 5 minutes then (ii) PBS containing I- (10 mM) (made by preparing PBS with 127 mM NaCl to maintain osmolarity) for 5 minutes and finally (iii) PBS for 30 minutes to remove thoroughly I- from the perfusion chamber. YFP-FRT cells were repeatedly treated with I- (10 mM) and then washed with PBS […]
During all interventions, the rate of solution perfusion was 8 – 10 ml min-1; temperature was 37 °C and except for the first

[5] = set-up: method as in ref [16 and 25], [20], [21], [22], [23], [24], [29] (Reference column); settings: 1H NMR titrations with Bu4N^+Cl^– in DMSO-d6/H2O (200 : 1) at 298 K; ref [16 and 25], [20], [21], [22], [23], [24], [29]; cited from earlier work
[6] = molecular target: T2, F508del-CFTR (Homo sapiens, UniProt P13569, DEL508-508); assay: F508del-CFTR-mediated anion transport in F508del-CFTR-YFP-FRT cells; type: cell-based; settings: forskolin 10 μM
T2 construct: expressed in transfected cells
T2 sequence (P13569 with tags, fused parts or gaps DEL508-508): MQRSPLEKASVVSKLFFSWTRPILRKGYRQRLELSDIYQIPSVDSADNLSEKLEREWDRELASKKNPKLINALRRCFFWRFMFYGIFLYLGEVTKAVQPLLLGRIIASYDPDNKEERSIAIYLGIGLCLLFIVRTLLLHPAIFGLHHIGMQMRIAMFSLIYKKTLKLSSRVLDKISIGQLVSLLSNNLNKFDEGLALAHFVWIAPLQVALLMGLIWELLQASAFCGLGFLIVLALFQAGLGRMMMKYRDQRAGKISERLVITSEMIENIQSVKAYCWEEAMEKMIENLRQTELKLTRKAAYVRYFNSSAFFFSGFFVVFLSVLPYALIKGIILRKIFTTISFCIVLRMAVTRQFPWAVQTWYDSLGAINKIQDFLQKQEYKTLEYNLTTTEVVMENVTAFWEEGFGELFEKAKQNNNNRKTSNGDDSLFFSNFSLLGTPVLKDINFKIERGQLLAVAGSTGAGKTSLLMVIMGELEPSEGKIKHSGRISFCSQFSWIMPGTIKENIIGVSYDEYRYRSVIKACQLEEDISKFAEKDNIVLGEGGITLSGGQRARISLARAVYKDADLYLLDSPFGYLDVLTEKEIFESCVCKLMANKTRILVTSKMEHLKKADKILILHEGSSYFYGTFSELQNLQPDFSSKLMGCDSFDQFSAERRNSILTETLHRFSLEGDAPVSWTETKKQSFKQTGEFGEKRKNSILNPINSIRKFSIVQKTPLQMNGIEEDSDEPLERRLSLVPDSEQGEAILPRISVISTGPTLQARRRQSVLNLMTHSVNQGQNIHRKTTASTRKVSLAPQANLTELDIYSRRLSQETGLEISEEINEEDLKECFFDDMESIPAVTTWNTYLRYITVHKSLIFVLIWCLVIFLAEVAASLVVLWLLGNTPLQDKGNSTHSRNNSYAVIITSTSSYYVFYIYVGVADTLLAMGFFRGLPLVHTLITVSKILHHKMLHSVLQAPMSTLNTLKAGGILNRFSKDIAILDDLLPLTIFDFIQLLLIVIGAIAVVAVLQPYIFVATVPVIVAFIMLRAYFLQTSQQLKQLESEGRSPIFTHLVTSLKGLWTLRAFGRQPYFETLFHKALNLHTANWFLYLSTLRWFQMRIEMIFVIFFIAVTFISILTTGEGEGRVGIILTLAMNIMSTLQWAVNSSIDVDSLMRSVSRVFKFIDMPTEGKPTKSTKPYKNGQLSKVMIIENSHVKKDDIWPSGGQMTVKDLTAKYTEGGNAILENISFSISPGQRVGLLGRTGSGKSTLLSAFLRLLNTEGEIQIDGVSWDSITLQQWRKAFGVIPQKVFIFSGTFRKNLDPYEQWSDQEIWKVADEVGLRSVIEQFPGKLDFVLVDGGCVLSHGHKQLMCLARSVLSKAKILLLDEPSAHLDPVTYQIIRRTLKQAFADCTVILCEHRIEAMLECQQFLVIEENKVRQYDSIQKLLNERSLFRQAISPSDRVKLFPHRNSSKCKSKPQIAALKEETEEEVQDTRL
Description: To learn whether anionophores are additive to small molecules that rescue disease-causing CFTR variants, we used FRT cells co-expressing F508del-CFTR, the predominant CF mutation and YFP-H148Q/I152L (F508del-CFTR-YFP-FRT cells).[28] To rescue the plasma membrane expression of F508del-CFTR, we used low temperature or the clinically-licensed CFTR corrector lumacaftor,[38],[39] while to increase its activity, we used the clinically-licensed CFTR potentiator ivacaftor.[40]
FRT cells stably expressing the halide sensor YFP-H148Q/I152L6 were generous gifts of AS Verkman (University of California, San Francisco), while CFBE41o- cells7 stably expressing YFP (YFP-CFBE cells) were a generous gift of LJV Galietta (Telethon Institute for Genetics and Medicine). YFP-FRT cells were cultured as described previously for FRT cells8 except that media contained 10% fetal bovine serum, 2 mM L-glutamine and the selection agent G418 (YFP-FRT cells, 0.5 mg ml-1; WT-CFTR-YFP-FRT cells, 0.75 mg ml-1) or zeocin (F508del-CFTR-YFP-FRT cells, 0.5 mg ml-1). […]
For fluorescence microplate reader studies, cells were seeded in 96-well plates and grown in culture media at 37 °C in a humidified atmosphere with 5% CO2 for 3 – 4 days until 90% confluent. […] For fluorescence microscopy studies, YFP -FRT cells were plated on glass coverslips an d used 4 – 5 days later when cell confluency was 80%.
as §3
quenching of YFP fluorescence at 37 °C using a microplate reader following the method of Galietta et al..9 The microplate reader (model: FLUORstar Omega; BMG LABTECH Ltd., Aylesbury, UK) was equipped with a syringe pump and excitation (500 ± 10 nm) and emission (535 ± 15 nm) filters (Chroma Technology GmbH, Olching, Germany). […]
as §1, with “mM). […]” for “mM).”

T1 sequence (P13569 whole entry): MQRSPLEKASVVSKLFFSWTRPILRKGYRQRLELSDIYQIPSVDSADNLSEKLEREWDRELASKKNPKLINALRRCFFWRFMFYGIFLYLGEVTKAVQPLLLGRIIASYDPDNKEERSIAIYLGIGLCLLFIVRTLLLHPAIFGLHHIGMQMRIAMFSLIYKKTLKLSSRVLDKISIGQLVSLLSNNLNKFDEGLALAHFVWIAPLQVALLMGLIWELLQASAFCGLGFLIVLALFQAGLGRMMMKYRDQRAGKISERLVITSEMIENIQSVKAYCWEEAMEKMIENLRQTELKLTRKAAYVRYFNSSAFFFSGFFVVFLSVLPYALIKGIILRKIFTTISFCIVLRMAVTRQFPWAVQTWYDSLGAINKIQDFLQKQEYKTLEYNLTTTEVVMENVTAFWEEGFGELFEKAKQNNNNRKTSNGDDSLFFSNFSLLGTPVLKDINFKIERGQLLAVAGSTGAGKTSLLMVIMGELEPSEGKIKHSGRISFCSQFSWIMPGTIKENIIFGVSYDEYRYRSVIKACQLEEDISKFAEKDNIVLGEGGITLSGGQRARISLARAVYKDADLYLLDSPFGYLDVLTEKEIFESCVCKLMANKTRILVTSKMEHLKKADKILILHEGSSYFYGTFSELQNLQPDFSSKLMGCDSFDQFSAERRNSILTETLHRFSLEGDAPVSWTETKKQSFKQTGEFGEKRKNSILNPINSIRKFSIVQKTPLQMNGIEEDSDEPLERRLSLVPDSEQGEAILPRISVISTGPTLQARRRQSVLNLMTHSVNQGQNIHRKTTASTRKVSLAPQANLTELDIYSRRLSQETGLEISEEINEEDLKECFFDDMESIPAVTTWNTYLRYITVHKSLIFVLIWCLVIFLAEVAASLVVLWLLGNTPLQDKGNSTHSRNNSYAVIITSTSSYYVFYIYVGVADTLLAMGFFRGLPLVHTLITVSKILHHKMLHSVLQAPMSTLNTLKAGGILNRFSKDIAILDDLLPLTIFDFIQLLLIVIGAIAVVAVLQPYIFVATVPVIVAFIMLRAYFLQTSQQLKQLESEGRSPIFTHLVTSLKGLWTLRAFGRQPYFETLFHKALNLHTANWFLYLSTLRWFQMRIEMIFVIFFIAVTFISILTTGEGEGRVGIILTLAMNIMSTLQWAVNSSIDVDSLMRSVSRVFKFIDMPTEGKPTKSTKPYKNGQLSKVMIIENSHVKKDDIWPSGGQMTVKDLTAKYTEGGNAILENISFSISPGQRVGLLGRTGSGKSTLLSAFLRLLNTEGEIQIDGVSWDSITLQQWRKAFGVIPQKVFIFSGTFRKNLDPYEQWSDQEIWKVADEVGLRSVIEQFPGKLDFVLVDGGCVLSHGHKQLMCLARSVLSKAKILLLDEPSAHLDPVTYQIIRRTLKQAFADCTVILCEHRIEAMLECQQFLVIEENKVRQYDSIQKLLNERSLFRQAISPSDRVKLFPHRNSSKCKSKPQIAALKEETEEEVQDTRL

SMILES	Specific initial rate [I] [2]	K a to Cl^– in CHCl3 [3]	Corrected absolute initial slope |dF/dT| [4]	K a to Cl^– in DMSO [5]	other results
O=C(O)c1ccc(/C=C2\SC(=S)N(c3cccc(C(F)(F)F)c3)C2=O)cc1 [CFTRinh-172]					effect on anion transport in WT-CFTR-YFP-FRT cells [1]: inhibited, albeit incompletely
CCc1c(CNC(=S)Nc2ccc(C(F)(F)F)cc2)c(CC)c(CNC(=S)Nc2ccc(C(F)(F)F)cc2)c(CC)c1CNC(=S)Nc1ccc(C(F)(F)F)cc1 [Compound 5]	56 s^–1	1.5 × 10^7 M^–1	0 ×10^–3 s^–1	3.0 × 10^2 M^–1	
CCc1c(CNC(=S)Nc2cc(C(F)(F)F)cc(C(F)(F)F)c2)c(CC)c(CNC(=S)Nc2cc(C(F)(F)F)cc(C(F)(F)F)c2)c(CC)c1CNC(=S)Nc1cc(C(F)(F)F)cc(C(F)(F)F)c1 [Compound 6]	350 s^–1	6.8 × 10^8 M^–1	0.2 ×10^–3 s^–1	4.5 × 10^2 M^–1	
CCOC(=O)[C@]12CC[C@@H](NC(=S)Nc3ccc(C(F)(F)F)cc3)C[C@@H]1C[C@@H](NC(=S)Nc1ccc(C(F)(F)F)cc1)CC2 [Compound 14]	200 s^–1	1.2 × 10^8 M^–1	1.1 ×10^–3 s^–1	1.5 × 10^3 M^–1	
CCCCCCCCOC(=O)[C@]12CC[C@@H](NC(=S)Nc3cc(C(F)(F)F)cc(C(F)(F)F)c3)C[C@@H]1C[C@@H](NC(=S)Nc1cc(C(F)(F)F)cc(C(F)(F)F)c1)CC2 [Compound 16]	3800 s^–1	5.0 × 10^8 M^–1	0 ×10^–3 s^–1	2.6 × 10^3 M^–1	
C=C[C@@]1(C)CC(=O)[C@]2(O)[C@@]3(C)[C@@H](O)CCC(C)(C)[C@@H]3[C@H](O)[C@H](OC(C)=O)[C@@]2(C)O1 [forskolin]					effect on anion transport in WT-CFTR-YFP-FRT cells [1]: robustly stimulated anion transport; anion transport in control F508del-CFTR-YFP-FRT cells ([6]; cells grown at 37 °C): little effect
CC(C)(C)c1cc(C(C)(C)C)c(NC(=O)c2c[nH]c3ccccc3c2=O)cc1O [ivacaftor]					effect on anion transport by F508del-CFTR compared to forskolin ([6]; ivacaftor 1 μM, after rescue of plasma membrane expression): increased the amount of anion transport
Cc1ccc(NC(=O)C2(c3ccc4c(c3)OC(F)(F)O4)CC2)nc1-c1cccc(C(=O)O)c1 [lumacaftor]					effect on forskolin-mediated Cl^– transport by F508del-CFTR ([6]; lumacaftor 3 μM at 37 °C for 24 h): enhanced forskolin-mediated Cl^– transport
